In ChEMBL document CHEMBL1157539, “Thousands of chemical starting points for antimalarial lead identification” (Nature, 2010):

tested on: Plasmodium falciparum; test: GSK_TCMDC: Inhibition of Plasmodium falciparum 3D7 in whole erythrocytes, using parasite LDH activity as an index of growth.; format: functional, organism-based; settings: Plasmodium falciparum, 3D7

Q: Which XC50 does the source give for CCN(CC)CCCC(C)Nc1cc(C)nc2cc(Cl)ccc12 (stereo not given) here?
A: 726 nM

Q: With O=C(Nc1ccc2c(c1)CCC2)N[C@H]1CCN(CCCCCNC(=O)C2CC2c2ccc(Cl)c(Cl)c2)C1 (stereo not given in full) as the compound, how does the XC50 read?
A: 1080 nM

Q: For O=C(c1cnn(-c2ccccc2)c1C(F)(F)F)N1CCN(c2ccnc3cc(Cl)ccc23)CC1, which XC50 is on record?
A: 532 nM

Q: Which XC50 does the source give for CNCCNCc1ccc(-c2ccc(-c3nc4cc(C(F)(F)F)ccc4[nH]3)cc2)cc1 here?
A: 314 nM

Q: How did the XC50 turn out when Cc1ccc(NCc2cccc(F)c2)cc1S(=O)(=O)N[C@@H]1CCN(C#N)C1 was run?
A: 785 nM

Q: Cc1cc(NC(=O)Nc2ccc(N(C)C)cc2)c2cc(Cl)ccc2n1 was tested. Which XC50 did it give?
A: 857 nM

Q: For CCC[C@@H]([C@@H](CC1CCC(C)CC1)C(=O)N[C@@H](CCCCNC(=O)c1ccccn1)C(=O)Nc1nccs1)N(O)C=O (stereo not given in full), which XC50 is on record?
A: 51.3 nM

Q: How did the XC50 turn out when CC1(C)NC(N)=NC(=N)N1OCCCOc1ccccc1N was run?
A: 3.2 nM

Q: With CC[C@H]1CN2CC[C@@H]1C[C@H]2[C@H](O)c1cc(-c2cccnc2)nc2ccc(OC)cc12 as the compound, how does the XC50 read?
A: 37.9 nM

Q: With COc1ccc2nccc(N3CCCN(CCNCc4ccc5c(n4)NC(=O)CS5)CC3)c2n1 as the compound, how does the XC50 read?
A: 155 nM

Q: How did the XC50 turn out when COc1ccc(N2C(N)=NC(N)=NC2(C)C)cc1OC was run?
A: 311 nM

Q: S=C(NCCCCCN1CCC(c2c[nH]c3ccccc23)CC1)Nc1cc(Cl)cc(Cl)c1 was tested. Which XC50 did it give?
A: 868 nM

Q: With O=C1OC(c2ccccc2)(c2ccccc2)CN1C1CCN(Cc2ccc(O)c(Cl)c2)C1 (stereo not given) as the compound, how does the XC50 read?
A: 955 nM

Q: With C=CCOc1ccc(C(=O)Nc2nonc2-c2ccc(OC)c(OC)c2)cc1 as the compound, how does the XC50 read?
A: 642 nM

Q: CC(CN(C)C)C(=O)Nc1cccc(-c2cccc(-c3nc4ccccc4[nH]3)c2)c1 (stereo not given) was tested. Which XC50 did it give?
A: 1060 nM

Q: For CCC(=O)Nc1ccc(C(O)CN2CCC3(C=Cc4ccccc4O3)CC2)cc1 (stereo not given), which XC50 is on record?
A: 1200 nM

Q: For Cn1nc(-c2ccc(Cl)cc2)c2cc(C(=O)NCCN3CCOCC3)sc21, which XC50 is on record?
A: 721 nM

Q: How did the XC50 turn out when COc1ccc(C(=O)NCCCCN2CCC(c3ccc4c(c3OC)CCCC4)CC2)cc1-c1ccc(C(F)(F)F)cc1 was run?
A: 755 nM

Q: CCn1c(-c2nonc2N)nc2c(-c3ccccc3)ncc(OCCCCNCCc3ncc[nH]3)c21 was tested. Which XC50 did it give?
A: 852 nM

Q: For Fc1cccc(COc2ccc(Nc3ncnc4sc(C#C[C@H]5CC[C@H](CN6CCOCC6)N5)cc34)cc2Cl)c1, which XC50 is on record?
A: 920 nM

Q: Which XC50 does the source give for CC(C)COc1ccc(Cl)cc1Cc1ccc(-c2nc3ccc(Cl)cc3[nH]2)o1 here?
A: 925 nM

Q: For O=C(c1cncc(-c2ccccc2)c1)N(Cc1cncn1Cc1ccccc1F)CC1CC1, which XC50 is on record?
A: 804 nM

Q: With CN(c1ccccc1C(=O)Nc1cc(Cl)ccc1Oc1ccccc1)S(=O)(=O)c1ccccc1 as the compound, how does the XC50 read?
A: 742 nM

Q: How did the XC50 turn out when CC(=O)Nc1cccc(-c2cnc(N)c3cc(-c4ccc5c(c4)OCO5)ccc23)c1 was run?
A: 491 nM

Q: O=C(CCCCCNC(=O)c1ccc(O)c(-c2ccc(Cl)c(Cl)c2)c1)NCc1cccc2ccccc12 was tested. Which XC50 did it give?
A: 762 nM

Q: For c1ccc2c(Nc3ccc(OCCOCCOc4ccc(Nc5c6ccccc6nc6ccccc56)cc4)cc3)c3ccccc3nc2c1, which XC50 is on record?
A: 284 nM

Q: For CC(Oc1ccc(NC(=O)c2cccs2)cc1)C(=O)c1ccc(Cl)cc1 (stereo not given), which XC50 is on record?
A: 774 nM

Q: Which XC50 does the source give for Cc1cccc(C)c1OC(=O)C(C)C(O)C1(Sc2ccccc2)CCN(C)CC1 (stereo not given) here?
A: 734 nM

Q: With O=C1COC(c2ccccc2)(c2ccccc2)CN1CC1CCN(Cc2ccc(O)cc2Cl)C1 (stereo not given) as the compound, how does the XC50 read?
A: 999 nM

Q: Which XC50 does the source give for Cc1nc2nc(N)nc(N)c2c(C)c1Cc1cccc(C(F)(F)F)c1 here?
A: 1290 nM

Q: For CC1CCC(NCc2c(O)ccc3ccccc23)CC1 (stereo not given), which XC50 is on record?
A: 772 nM

Q: Nc1cc(-c2ccc3ccccc3c2)nc2ccccc12 was tested. Which XC50 did it give?
A: 699 nM

Q: For FC(F)(F)c1ccc2[nH]c(-c3ccc(-c4ccc(CN5CCN(c6cnccn6)CC5)cc4)s3)nc2c1, which XC50 is on record?
A: 652 nM

Q: For CCCCCCOc1ccc(C(=O)NCCCC2CCN(CCCCCNC(=O)C=Cc3ccc(Cl)c(Cl)c3)CC2)cc1, which XC50 is on record?
A: 854 nM

Q: COc1cc(C(F)(F)F)cc2[nH]c(CNCCCNc3nc4ccccc4[nH]3)cc12 was tested. Which XC50 did it give?
A: 280 nM

Q: O=C(C=Cc1ccc(Cl)c(Cl)c1)NCCCCCN1CCC(CCCNC(=O)C2CC2c2ccccc2)CC1 (stereo not given) was tested. Which XC50 did it give?
A: 765 nM

Q: COc1ccc(CCN(C)CCCOc2ccc(NC(=O)COc3cccc4sc5ccccc5c(=O)c34)cc2)cc1OC was tested. Which XC50 did it give?
A: 459 nM

Q: How did the XC50 turn out when CN(C)Cc1ccc(-c2ccc(NC(=O)c3ccc4c(=O)n(Cc5ccccc5)cnc4c3)cc2)cc1 was run?
A: 647 nM

Q: For NS(=O)(=O)c1ccc(CNc2ccc3ncc(-c4ccc(OC(F)(F)F)cc4)n3n2)cc1, which XC50 is on record?
A: 578 nM

Q: For O=S(=O)(c1cccc(Br)c1)N1CCCCC(c2ccc(C(F)(F)F)cc2)=N1, which XC50 is on record?
A: 554 nM

Q: Which XC50 does the source give for CCCCOc1c(CCNCCCCNCCc2cc(OC)c3ccccc3c2OCCCC)cc(OC)c2ccccc12 here?
A: 925 nM

Q: With COc1cccc(CN2CCCC(OC(c3ccc(F)cc3)c3ccc(F)cc3)C2)c1O (stereo not given) as the compound, how does the XC50 read?
A: 788 nM

Q: Which XC50 does the source give for CN1CCN(c2ccnc3ccc(NC(=O)Nc4ccc(Br)cc4)cc23)CC1 here?
A: 92.5 nM

Q: How did the XC50 turn out when O=c1nc(NCCCNCc2cc3c(Cl)cc(Cl)cc3[nH]2)[nH]c2ccccc12 was run?
A: 993 nM

Q: CC1(C)N=C(N)N=C(N)N1OCc1cc(Cl)c(CON2C(N)=NC(N)=NC2(C)C)cc1Cl was tested. Which XC50 did it give?
A: 37.8 nM

Q: Which XC50 does the source give for Cc1ccc2nc(-c3ccc(C(=O)NCc4ccc(Cl)c(Cl)c4)cc3)[nH]c2c1C here?
A: 790 nM

Q: With Cc1cc(-c2nc3ccc(N4CCN(C)CC4)cc3[nH]2)nn1Cc1cc(Cl)ccc1OCC(C)C as the compound, how does the XC50 read?
A: 878 nM

Q: How did the XC50 turn out when CCOC(=O)c1sc(C(C)Nc2ccccc2)nc1-c1ccccc1 (stereo not given) was run?
A: 333 nM

Q: For NC(=O)c1cc(-c2ccccc2)cc2c(C3CCC(NCc4ccccc4)C3)c[nH]c12 (stereo not given), which XC50 is on record?
A: 910 nM

Q: With O=S(=O)(Nc1ccc(CCN2CCCCC2CCN2CCCC2)cc1)c1ccc(-c2ccccc2)cc1 (stereo not given) as the compound, how does the XC50 read?
A: 926 nM

Q: With O=C(Nc1ccc(Cn2ncc(N3CCCNCC3)c(Cl)c2=O)cc1)Nc1cc(C(F)(F)F)cc(C(F)(F)F)c1 as the compound, how does the XC50 read?
A: 588 nM

Q: Which XC50 does the source give for Fc1cccc(CNc2ncc(-c3ccsc3)c(-c3nccs3)n2)c1 here?
A: 238 nM

Q: Which XC50 does the source give for O=C(NCCCCCN1CCC(c2c[nH]c3ccccc23)CC1)Nc1cccc(I)c1 here?
A: 993 nM

Q: Which XC50 does the source give for COc1cc(F)c2ncc(F)c([C@@H](O)CN3CCC(NCc4cc5c(cn4)OCCO5)CC3)c2c1 here?
A: 477 nM

Q: With CCCNC(=O)C1Cc2c([nH]c3ccc(Br)cc23)C2(CCN(CCc3ccccc3)CC2)N1 (stereo not given) as the compound, how does the XC50 read?
A: 678 nM

Q: With CCNc1cc(C(=O)N[C@@H](Cc2ccccc2)[C@H](O)CNC(C)CC(C)C)c(F)c(N2CCCCS2(=O)=O)c1 (stereo not given in full) as the compound, how does the XC50 read?
A: 1120 nM

Q: With CCOC(=O)CNC(=O)N(CCN(Cc1ccccc1)C(=O)NCC(=O)OCC)Cc1ccccc1 as the compound, how does the XC50 read?
A: 769 nM

Q: With Cc1[nH]c(C)c(-c2ccc(-c3ccccc3Cl)nc2)c(=O)c1Br as the compound, how does the XC50 read?
A: 171 nM

Q: With Nc1c(Cl)cc(C(O)CNCCCCCOCCCc2ccc(O)c3ncccc23)cc1Cl (stereo not given) as the compound, how does the XC50 read?
A: 992 nM

Q: For Cc1cc(=O)c(-c2ccc(Oc3cccc(Cl)c3)cc2)c(C)[nH]1, which XC50 is on record?
A: 602 nM

Q: How did the XC50 turn out when CCOc1ccccc1CNc1nccc(NCCc2cn(C)c3ccccc23)n1 was run?
A: 1260 nM

Q: For CCc1nc2nc(C)cc(Nc3ccc4c(c3)OCCO4)n2n1, which XC50 is on record?
A: 1290 nM

Q: Which XC50 does the source give for CCCCCCN1CCCN(Cc2ccc(C(=O)Nc3ccc(CC)cc3)cc2)CC1 here?
A: 756 nM

Q: COc1ccc2nccc(NCC3(O)CCN(CC(O)c4ccc5c(c4)NC(=O)CS5)CC3)c2n1 (stereo not given) was tested. Which XC50 did it give?
A: 834 nM

Q: For C=CCOC(=O)N1CCC(CNCc2cccc(-c3cccc(-c4nc5cc(F)ccc5[nH]4)c3)c2)C1 (stereo not given), which XC50 is on record?
A: 207 nM

Q: How did the XC50 turn out when CC(=O)Nc1nc(C(=O)Nc2cccc(-c3ccc(-c4nc5cccc(C)c5[nH]4)s3)c2)cs1 was run?
A: 222 nM

Q: COc1ccc2c(c1CCNCCCCNCCc1c(OC)ccc3c1CCCC3)CCCC2 was tested. Which XC50 did it give?
A: 376 nM

Q: With COc1ccc(-c2ccc(NC(=O)c3ccc(C#N)cc3)cc2)cc1CN1CCCN(C)CC1 as the compound, how does the XC50 read?
A: 152 nM

Q: For Nc1ncc(-c2cccc(OCc3ccccc3)c2)cc1-c1nnc2ccc(Cl)nn12, which XC50 is on record?
A: 1430 nM

Q: With NC(=O)c1sc(-n2cnc3ccccc32)cc1OCc1ccccc1[N+](=O)[O-] as the compound, how does the XC50 read?
A: 702 nM
